Values quoted from earlier work, collected in patent US6548469B2, “Cleaning compositions” (Merck Patent GmbH, priority 1996, dated 2003).

Conditions: use in cosmetics formulations on humans

CCCCN(CCC(=O)OCC)C(C)=O [ethyl 3-(N-butylacetamino)propionate]
skin and mucosa tolerance: outstanding
toxic, allergizing or sensitizing properties: without toxic, allergizing or sensitizing properties
